Laboratory results taken from patent publication US20210330611A1, “THERAPY FOR NEUROLOGICAL DISEASES/DISORDERS” (priority 2020, published 2021).
Structures can show the parent of a compound that is named as a salt. Where two headings read alike, the source gives them in different places.

Legend:
[1] = test system: primary rat microglia;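 on Fibrin % cell toxicity: share of dead cells sized under 150 µm2 at 10 µM in fibrin-stimulated microglia HTS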
[2] = test system: primary rat microglia; remark: listed apart in the source;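 on Fibrin % cell toxicity: share of dead cells sized under 150 µm2 at 10 µM in fibrin-stimulated microglia HTS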
[3] = test system: fibrin-induced microglia activation; assay: Image-based assay of fibrin-induced microglia activation (HTS and dose response); assay type: cell-based, rat; conditions: for inhibition at 10 µM: Rattus norvegicus, Microglia, read-out: Fibrin % inhibition
[4] = test system: fibrin- and LPS-induced microglia activation; assay: cells; assay type: cell-based, rat
[5] = test system: LPS-induced microglia activation; assay: Image-based assay of LPS-induced microglia activation (HTS and dose response); assay type: cell-based, rat
[6] = primary microglia HTS, fibrin stimulation, cell size >800 μm2 as marker of activation
[7] = classification by fibrin and LPS inhibition in HTS
[8] = primary microglia HTS, fibrin stimulation, compounds at 10 μM
[9] = classification by fibrin and LPS inhibition, HTS at 10 μM
[10] = Rattus norvegicus, Microglia, primary microglia HTS, LPS stimulation, compounds at 10 μM; read-out: LPS % inhibition
[11] = primary microglia HTS, fibrin stimulation, increased cell size (>800 μm^2) as marker of activation
[12] = quadrant by fibrin and LPS inhibition in HTS of 1907 compounds
[13] = Rattus norvegicus, Microglia, 48 h, primary microglia HTS, LPS stimulation; increased cell size (>800 μm^2) as marker of activation; read-out: LPS % inhibition
[14] = Rattus norvegicus, Microglia, 48 h, read-out: LPS % inhibition
[15] = quadrant by fibrin and LPS inhibition, HTS at 10 μM
[16] = Rattus norvegicus, Microglia, 48 h; read-out: LPS % inhibition
[17] = Rattus norvegicus, Microglia, read-out: LPS % inhibition

## C=C[C@H]1C[N@@]2CC[C@H]1C[C@H]2[C@H](O)c1ccnc2ccc(OC)cc12 [Quinine Sulfate]
[1]; rat
  Fibrin % cell toxicity: 1%
[2]; rat
  LPS % cell toxicity: 1%
[3]; [6]
  Fibrin % inhibition: −30%
[4]; [7]
  Quadrant (FIG. 5b): Q4
[5]
  LPS % inhibition: 14%

## CN(C)CC(c1ccc(O)cc1)C1(O)CCCCC1 (centres unmarked) [Desvenlafaxine]
[1]; rat
  Fibrin % cell toxicity: 1%
[2]; rat
  LPS % cell toxicity: 1%
[3]; [8]
  inhibition at 10 µM: 13%
[4]; [9]
  Quadrant (FIG. 5b): Q4
[5]; [10]
  inhibition at 10 µM: 3%

## CO[C@H]1/C=C/O[C@@]2(C)Oc3c(C)c(O)c4c(O)c(c(/C=N/N5CCN(C)CC5)c(O)c4c3C2=O)NC(=O)/C(C)=C\C=C\[C@H](C)[C@H](O)[C@@H](C)[C@@H](O)[C@@H](C)[C@H](OC(C)=O)[C@@H]1C [Rifampin]
[1]; rat
  Fibrin % cell toxicity: 1%
[2]; rat
  LPS % cell toxicity: 0%
[3]
  Fibrin % inhibition: 8%
[4]
  Quadrant (FIG. 5b): Q4
[5]
  LPS % inhibition: 20%

## COC(=O)C1=C(C)NC(C)=C(C(=O)OCC(C)C)C1c1ccccc1[N+](=O)[O-] (centres unmarked) [Nisoldipine]
[1]; rat
  Fibrin % cell toxicity: 1%
[2]; rat
  LPS % cell toxicity: 1%
[3]; [11]
  inhibition at 10 µM: 6%
[4]; [12]
  Quadrant (FIG. 5b): Q4
[5]; [13]
  inhibition at 10 µM: 25%

## COP(=O)(OC)OC=C(Cl)Cl [Dichlorvos]
[1]; rat
  Fibrin % cell toxicity: 1%
[2]; rat
  LPS % cell toxicity: 1%
[3]; [8]
  inhibition at 10 µM: -1%
[4]; [9]
  Quadrant (FIG. 5b): Q4
[5]; [10]
  inhibition at 10 µM: 19%

## NNc1nncc2ccccc12 [Hydralazine]
[1]; rat
  Fibrin % cell toxicity: 1%
[2]; rat
  LPS % cell toxicity: 0%
[3]
  inhibition at 10 µM: -13%
[4]
  Quadrant (FIG. 5b): Q4
[5]; [14]
  inhibition at 10 µM: 22%

## CC(C)(C)NC(=O)[C@@H]1CN(Cc2cccnc2)CCN1C[C@@H](O)C[C@@H](Cc1ccccc1)C(=O)N[C@H]1c2ccccc2C[C@H]1O [Indinavir]
[1]; rat
  Fibrin % cell toxicity: 1%
[2]; rat
  LPS % cell toxicity: 0%
[3]; primary microglia HTS, fibrin stimulation, activation = cell size >800 μm2
  inhibition at 10 µM: -22%
[4]
  Quadrant (FIG. 5b): Q4
[5]; Rattus norvegicus, Microglia, 48 h, primary microglia HTS, LPS stimulation, activation = cell size >800 μm2; read-out: LPS % inhibition
  inhibition at 10 µM: 5%

## NCCCNCCSP(=O)(O)O [Amifostine]
[1]; rat
  Fibrin % cell toxicity: 0%
[2]; rat
  LPS % cell toxicity: 0%
[3]; [8]
  inhibition at 10 µM: -38%
[4]; [15]
  Quadrant (FIG. 5b): Q4
[5]; [10]
  inhibition at 10 µM: 15%

## COc1ccc(CN(CCN(C)C)c2ccccn2)cc1 [Mepyramine]
[1]; rat
  Fibrin % cell toxicity: 0%
[2]; rat
  LPS % cell toxicity: 0%
[3]; [11]
  inhibition at 10 µM: -11%
[4]; [12]
  Quadrant (FIG. 5b): Q4
[5]; [13]
  inhibition at 10 µM: 13%

## CC1CCC(NC(=O)N(CCCl)N=O)CC1 (centres unmarked) [Semustine]
[1]; rat
  Fibrin % cell toxicity: 1%
[2]; rat
  LPS % cell toxicity: 0%
[3]; [6]
  inhibition at 10 µM: -7%
[4]; [7]
  Quadrant (FIG. 5b): Q4
[5]; [16]
  inhibition at 10 µM: 18%

## Oc1ncnc2[nH]ncc12 [Allopurinol]
[1]; rat
  Fibrin % cell toxicity: 1%
[2]; rat
  LPS % cell toxicity: 0%
[3]; [8]
  inhibition at 10 µM: -17%
[4]; [15]
  Quadrant (FIG. 5b): Q4
[5]; [10]
  inhibition at 10 µM: 16%

## CN(C)/N=N/c1[nH]cnc1C(N)=O [Dacarbazine]
[1]; rat
  Fibrin % cell toxicity: 0%
[2]; rat
  LPS % cell toxicity: 0%
[3]; [8]
  inhibition at 10 µM: -13%
[4]; [9]
  Quadrant (FIG. 5b): Q4
[5]; [10]
  inhibition at 10 µM: 17%

## CN(C)[C@@H]1C(O)=C(C(N)=O)C(=O)[C@@]2(O)C(O)=C3C(=O)c4c(O)cccc4[C@@](C)(O)[C@H]3C[C@@H]12 [Tetracycline]
[1]; rat
  Fibrin % cell toxicity: 0%
[2]; rat
  LPS % cell toxicity: 0%
[3]
  inhibition at 10 µM: 7%
[4]
  Quadrant (FIG. 5b): Q4
[5]; [17]
  inhibition at 10 µM: 19%

## Cc1cccc(C)c1OCC(C)N (centres unmarked) [Mexiletine]
[1]; rat
  Fibrin % cell toxicity: 1%
[2]; rat
  LPS % cell toxicity: 0%
[3]
  inhibition at 10 µM: 2%
[4]
  Quadrant (FIG. 5b): Q4
[5]; [14]
  inhibition at 10 µM: 13%

## CC12CCC(CC1=O)C2(C)C [D-camphor]
[1]
  Fibrin % cell toxicity: 0%
[2]
  LPS % cell toxicity: 0%
[3]; [8]
  Fibrin % inhibition: −32%
[4]; [9]
  Quadrant (FIG. 5b): Q4
[5]; primary microglia HTS, LPS stimulation, compounds at 10 μM
  LPS % inhibition: 6%

## Nc1nc2[nH]cc(CCc3ccc(C(=O)N[C@@H](CCC(=O)O)C(=O)O)cc3)c2c(=O)[nH]1 [Pemetrexed]
[1]; rat
  Fibrin % cell toxicity: 0%
[2]; rat
  LPS % cell toxicity: 0%
[3]; [6]
  inhibition at 10 µM: -8%
[4]; [7]
  Quadrant (FIG. 5b): Q4
[5]; [16]
  inhibition at 10 µM: 9%

## Cc1ccc(-c2cc(C(F)(F)F)nn2-c2ccc(S(N)(=O)=O)cc2)cc1 [Celecoxib]
[1]; rat
  Fibrin % cell toxicity: 0%
[2]; rat
  LPS % cell toxicity: 0%
[3]; primary HTS, 10 μM, fibrin-stimulated primary microglia
  inhibition at 10 µM: -31%
[4]; primary HTS, 10 μM
  Quadrant (FIG. 5b): Q4
[5]; Rattus norvegicus, Microglia, primary HTS, 10 μM, LPS-stimulated primary microglia; read-out: LPS % inhibition
  inhibition at 10 µM: 21%

## C=C[C@H]1C[N@@]2CC[C@H]1C[C@H]2[C@H](O)c1ccnc2ccc(OC)cc12 [Quinine]
[1]; rat
  Fibrin % cell toxicity: 1%
[2]; rat
  LPS % cell toxicity: 0%
[3]; [6]
  Fibrin % inhibition: −32%
[4]; [7]
  Quadrant (FIG. 5b): Q4
[5]
  LPS % inhibition: −7%

## CC1CCc2c(N3CCC(O)CC3)c(F)cc3c(=O)c(C(=O)O)cn1c23 (centres unmarked) [Nadifloxacin]
[1]; rat
  Fibrin % cell toxicity: 1%
[2]; rat
  LPS % cell toxicity: 0%
[3]; [11]
  inhibition at 10 µM: -14%
[4]; [12]
  Quadrant (FIG. 5b): Q4
[5]; [13]
  inhibition at 10 µM: 10%

## CO[C@H]1C[C@@H]2CC[C@@H](C)[C@@](O)(O2)C(=O)C(=O)N2CCCC[C@H]2C(=O)O[C@H]([C@H](C)C[C@@H]2CC[C@@H](O)[C@H](OC)C2)CC(=O)[C@H](C)/C=C(\C)[C@@H](O)[C@@H](OC)C(=O)[C@H](C)C[C@H](C)/C=C/C=C/C=C/1C [Sirolimus]
[1]; rat
  Fibrin % cell toxicity: 4%
[2]; rat
  LPS % cell toxicity: 1%
[3]; [8]
  inhibition at 10 µM: 108%
[4]; [15]
  Quadrant (FIG. 5b): Q2
[5]; [10]
  inhibition at 10 µM: 81%

## O=c1[nH]c2ccccc2n1CCCN1CCC(n2c(=O)[nH]c3cc(Cl)ccc32)CC1 [Domperidone]
[1]; rat
  Fibrin % cell toxicity: 1%
[2]; rat
  LPS % cell toxicity: 0%
[3]
  inhibition at 10 µM: 20%
[4]
  Quadrant (FIG. 5b): Q4
[5]; [17]
  inhibition at 10 µM: 15%

## O=C(c1ccc(OCCN2CCCCC2)cc1)c1c(-c2ccc(O)cc2)sc2cc(O)ccc12 [Raloxifene]
[1]; rat
  Fibrin % cell toxicity: 0%
[2]; rat
  LPS % cell toxicity: 1%
[3]; [11]
  inhibition at 10 µM: 7%
[4]; [12]
  Quadrant (FIG. 5b): Q1
[5]; [13]
  inhibition at 10 µM: 60%

## CN(C/C=C/c1ccccc1)Cc1cccc2ccccc12 [Naftifine]
[1]; rat
  Fibrin % cell toxicity: 0%
[2]; rat
  LPS % cell toxicity: 0%
[3]
  inhibition at 10 µM: -12%
[4]
  Quadrant (FIG. 5b): Q4
[5]; [14]
  inhibition at 10 µM: 3%

## CC(C)c1nc(CN(C)C(=O)N[C@H](C(=O)N[C@@H](Cc2ccccc2)C[C@H](O)[C@H](Cc2ccccc2)NC(=O)OCc2cncs2)C(C)C)cs1 [Ritonavir]
[1]; rat
  Fibrin % cell toxicity: 0%
[2]; rat
  LPS % cell toxicity: 0%
[3]; [6]
  inhibition at 10 µM: -8%
[4]; [7]
  Quadrant (FIG. 5b): Q4
[5]; [16]
  inhibition at 10 µM: 11%

## NC[C@@H]1O[C@H](O[C@H]2[C@@H](O)[C@H](O[C@@H]3[C@@H](O)[C@H](N)C[C@H](N)[C@H]3O[C@H]3O[C@H](CN)[C@@H](O)[C@H](O)[C@H]3N)O[C@@H]2CO)[C@H](N)[C@@H](O)[C@@H]1O.O=S(=O)(O)O [Neomycin Sulfate]
[1]
  Fibrin % cell toxicity: 0%
[2]
  LPS % cell toxicity: 0%
[3]; [11]
  Fibrin % inhibition: 15%
[4]; [12]
  Quadrant (FIG. 5b): Q4
[5]; primary microglia HTS, LPS stimulation; increased cell size (>800 μm^2) as marker of activation
  LPS % inhibition: 18%

## Cc1ccc(C(C)C)c(O)c1 [Thymol]
[1]; rat
  Fibrin % cell toxicity: 1%
[2]; rat
  LPS % cell toxicity: 0%
[3]; primary microglia HTS, 10 μM, fibrin-stimulated, cell size >800 μm^2 as marker of activation
  inhibition at 10 µM: 15%
[4]; HTS of 1907 compounds, quadrant by fibrin and LPS inhibition
  Quadrant (FIG. 5b): Q4
[5]; Rattus norvegicus, Microglia, primary microglia HTS, 10 μM, LPS-stimulated, cell size >800 μm^2 as marker of activation; read-out: LPS % inhibition
  inhibition at 10 µM: 20%

## NC(=O)c1ccccc1O [Salicylamide]
[1]; rat
  Fibrin % cell toxicity: 1%
[2]; rat
  LPS % cell toxicity: 1%
[3]; [6]
  inhibition at 10 µM: -20%
[4]; [7]
  Quadrant (FIG. 5b): Q4
[5]; [16]
  inhibition at 10 µM: 16%

## Sulfanilate Zinc
[1]
  Fibrin % cell toxicity: 0%
[2]
  LPS % cell toxicity: 0%
[3]; 10 µM
  Fibrin % inhibition: −6%
[4]
  Quadrant (FIG. 5b): Q4
[5]; 10 µM
  LPS % inhibition: 15%
